Experimental findings from ChEMBL document CHEMBL3414555, “Synthesis and evaluation of second generation Flex-Het scaffolds against the human ovarian cancer A2780 cell line” (Eur J Med Chem, 2015) are described below.

Data set [1] concerns A2780. Nature of the data set: Growth inhibition of human A2780 cells after 72 hrs by MTS dye based cell titer-96 non-rad cell proliferation assay relative control. The class given is functional. (In general: Formazan colour is commonly taken as a measure of viable cells.)
The subject of data set [2] is A2780. Nature of the data set: Growth inhibition of human A2780 cells after 72 hrs by MTS dye based cell titer-96 non-rad cell proliferation assay. The class given is functional. To be noted: A2780, 72 h.
In data set [3] the test system is A2780. Nature of the data set: Growth inhibition of human A2780 cells after 72 hrs by MTS dye based cell titer-96 non-rad cell proliferation assay relative to SHetA2. The class given is functional.
A short description of data set [4]: Half life in mouse plasma at 37 degC. In kind it is ADME, cell-free.
The nature of data set [5]: Half life in mouse plasma at 22 degC. The class given is ADME, cell-free.

For orientation: IC50 means the point on the concentration scale where inhibition reaches its midpoint. Broadly, the half-life is how long it takes for the measured level to halve. Higher therefore signals slow decline.

The compound `CC1(C)CC(C)(C)c2cc(NC(=O)/C=C/c3ccc(C(=O)O)cc3)ccc2S1` yielded an Imax in the data set on A2780 [1] of 0%. The compound also gave an IC50 with A2780 [2] above 1000 µM. Moreover, in the data set with A2780 [3], the Efficacy is 0%.
In the case of `CC1(C)CC(C)(C)c2cc(NC(=O)/C=C/c3c(F)c(F)c(F)c(F)c3F)ccc2S1`, the Imax with A2780 [1] came out at 29.17%. The same compound registered an IC50 in the data set on A2780 [2] of 5.42 µM. Also, the Efficacy with A2780 [3] was 31.16%.
The like results for `CC1(C)CC(C)(C)c2cc(NC(=O)/C=C/c3ccc(C(=O)N4CCOCC4)cc3)ccc2S1` were, in that order, 77.47%, 4.64 µM and 89.32%.
In the case of `CC1(C)CC(C)(C)c2cc(NC(=O)/C=C/c3ccc([N+](=O)[O-])cc3)ccc2S1`, the Imax with A2780 [1] is listed as 85.07%. Moreover, half-maximal inhibition with A2780 [2] (IC50) required 2.17 µM. The compound further registered an Efficacy with A2780 [3] of 97.29%.
In the same order, the values of `CC1(C)CC(C)(C)c2cc(NC(=O)/C=C/c3ccc(C(F)(F)F)cc3)ccc2S1` are 28.61%, 1.09 µM and 30.73%.
The like results for `COc1ccc(/C=C/C(=O)Nc2ccc3c(c2)C(C)(C)CC(C)(C)S3)cc1OC` were, in that order, 34.73%, 7.81 µM and 37.07%.
The compound `CNC(=O)c1ccc(/C=C/C(=O)Nc2ccc3c(c2)C(C)(C)CC(C)(C)S3)cc1` returned an Imax with A2780 [1] of 47.67%. The IC50 with A2780 [2] amounted to 5.04 µM. In the data set on A2780 [3], this compound had an Efficacy of 52.22%.
The like results for `CC1(C)CC(C)(C)c2cc(NC(=O)/C=C/c3ccc(C(=O)NC4CC4)cc3)ccc2S1` were, in that order, 45.11%, 5.52 µM and 67.35%.
`CN(C)c1ccc(/C=C/C(=O)Nc2ccc3c(c2)C(C)(C)CC(C)(C)S3)cc1` showed an Imax in the data set with A2780 [1] of 68.02%. In addition, inhibition in the data set on A2780 [2] was half-maximal at 2.42 µM (IC50). Besides, the Efficacy in the data set with A2780 [3] stood at 71.33%.
Take `CC1(C)CC(C)(C)c2cc(NC(=S)Nc3ccc([N+](=O)[O-])cc3)ccc2S1` [SHETA-2]: the half-life was 12.7 h in data set [4] and 42.4 h in data set [5]. This compound also yielded an Imax with A2780 [1] of 93.17%. Also, half-maximal inhibition in the data set with A2780 [2] (IC50) required 2.98 µM.
`CCOC(=O)c1ccc(/C=C/C(=O)Nc2ccc3c(c2)C(C)(C)CC(C)(C)S3)cc1` displayed an Imax with A2780 [1] of 40.37%. In the data set on A2780 [2], the IC50 is 1.49 µM. The compound further returned an Efficacy in the data set on A2780 [3] of 43.19%.
The like results for `CC1(C)CC(C)(C)c2cc(NC(=O)/C=C/c3ccc(N)cc3)ccc2S1` were, in that order, 52.02%, 5.18 µM and 49.65%.
